Tests used:
[1] = molecular target: T1, ERβ (Homo sapiens, UniProt Q92731); settings: in the presence of ERβ
[2] = molecular target: T1, ERβ; assay: Repression of TNF-α activation of TNF-RE tkLuc in U2OS cells with ERβ; type: cell-based; parameters: expressed in transfected cells
[3] = tested on: TNF-RE tkLuc; assay: Effect of antiestrogens on TNF-RE tkLuc; type: cell-based, human; settings: for effect on the repression induced by E2: TNF-RE tkLuc; for activation of TNF-RE tkLuc: antiestrogens, in contrast to E2
[4] = molecular target: T1, ERβ; assay: ERE-tk-Luc luciferase activation in U2OS cells with ERβ; type: cell-based; parameters: expressed in transfected cells; host or cells: U2OS (human osteosarcoma); settings: competition
[5] = tested on: estrogen receptor-positive breast cancer; settings: five years of therapy; cited from earlier work
[6] = tested on: primary invasive breast cancer; settings: women at high risk for breast cancer; cited from earlier work

T1 sequence (Q92731 whole entry): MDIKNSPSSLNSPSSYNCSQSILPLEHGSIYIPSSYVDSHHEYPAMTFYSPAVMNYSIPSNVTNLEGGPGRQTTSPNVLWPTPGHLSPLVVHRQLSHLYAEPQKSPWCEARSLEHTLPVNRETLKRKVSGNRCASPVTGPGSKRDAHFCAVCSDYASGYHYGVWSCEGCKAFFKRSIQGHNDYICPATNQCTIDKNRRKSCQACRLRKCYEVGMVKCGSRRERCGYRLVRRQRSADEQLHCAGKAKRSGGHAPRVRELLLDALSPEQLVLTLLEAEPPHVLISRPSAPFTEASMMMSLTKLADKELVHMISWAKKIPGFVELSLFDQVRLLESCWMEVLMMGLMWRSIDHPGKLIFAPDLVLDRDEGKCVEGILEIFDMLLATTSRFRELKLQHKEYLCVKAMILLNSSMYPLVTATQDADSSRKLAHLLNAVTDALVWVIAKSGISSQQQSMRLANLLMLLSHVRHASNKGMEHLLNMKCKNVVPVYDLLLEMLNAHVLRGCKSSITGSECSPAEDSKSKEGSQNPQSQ

repression of TNF-α activation of TNF-RE tkLuc [1] | repression of TNF-α activation of TNF-RE [2] | stimulatory effect of Pueraria lobata on the ERE with ERβ in the presence of the SERM antagonist (FIG. 6) [4] | SMILES | effect on the repression induced by E2 [3] | activation of TNF-RE tkLuc [3] | reduction of mortality from breast cancer [5] | reduction of the risk of recurrences [5] | reduction of the risk of primary invasive breast cancer [6]
60-80% | 100% | – | C[C@]12CC[C@@H]3c4ccc(O)cc4CC[C@H]3[C@@H]1CC[C@@H]2O [E2, estradiol] | – | – | – | – | –
– | – | – | C[C@]12CC[C@@H]3c4ccc(O)cc4C[C@@H](CCCCCCCCC[S+]([O-])CCCC(F)(F)C(F)(F)F)[C@H]3[C@@H]1CC[C@@H]2O (stereo partly drawn) [ICI 182, 780] | abolished the repression induced by E2 | 2 fold | – | – | –
– | – | inhibited | O=C(c1ccc(OCCN2CCCCC2)cc1)c1c(-c2ccc(O)cc2)sc2cc(O)ccc12 [raloxifene] | abolished the repression induced by E2 | 2 fold | – | – | –
– | – | – | CC/C(=C(\c1ccccc1)c1ccc(OCCN(C)C)cc1)c1ccccc1 [tamoxifen] | abolished the repression induced by E2 | 2 fold | 22% | 42% | 49%

Reference: patent US20090068299A1
